Active and inactive are the calls of the source.
Experiments:
[1] = target: T1, Heat shock factor protein 1 (Mus musculus, UniProt P38532); assay: enhancement of HSF1-driven luciferase signal – cell-based, NIH3T3, luminescence, dose retest, confirmation (AID 435004); type: functional;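 also: stress induced by proteasome inhibitor MG132 added 30 min after compound; luciferase reporter driven by HSF1 response element in NIH3T3 cells; actives raise luminescence as potentiators of the MG132 stress response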
T1 sequence (P38532 whole entry): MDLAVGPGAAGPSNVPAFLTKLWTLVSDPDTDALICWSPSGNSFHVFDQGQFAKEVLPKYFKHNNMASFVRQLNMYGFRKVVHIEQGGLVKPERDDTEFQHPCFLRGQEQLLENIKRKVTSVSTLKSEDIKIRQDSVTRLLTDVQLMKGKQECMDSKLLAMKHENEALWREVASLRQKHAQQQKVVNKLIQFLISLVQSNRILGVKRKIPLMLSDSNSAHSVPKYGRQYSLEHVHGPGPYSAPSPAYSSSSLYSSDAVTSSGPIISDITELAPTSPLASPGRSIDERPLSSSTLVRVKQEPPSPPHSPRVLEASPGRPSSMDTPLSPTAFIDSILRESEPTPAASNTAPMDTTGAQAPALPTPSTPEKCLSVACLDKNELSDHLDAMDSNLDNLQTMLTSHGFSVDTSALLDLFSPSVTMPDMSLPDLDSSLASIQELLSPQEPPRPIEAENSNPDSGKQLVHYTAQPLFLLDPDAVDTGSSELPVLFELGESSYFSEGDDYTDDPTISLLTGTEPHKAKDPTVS

[2] = target: 1-phosphatidylinositol 4,5-bisphosphate phosphodiesterase gamma-1 (Homo sapiens, UniProt P19174); assay: Counterscreen for inhibitors of phospholipase C isozymes (PLC-B3): Fluorescence-based biochemical high throughput dose response assay to identify inhibitors of phospholipase C isozymes (PLC-gamma1).
Chain of 1-phosphatidylinositol 4,5-bisphosphate phosphodiesterase gamma-1 (P19174 whole entry): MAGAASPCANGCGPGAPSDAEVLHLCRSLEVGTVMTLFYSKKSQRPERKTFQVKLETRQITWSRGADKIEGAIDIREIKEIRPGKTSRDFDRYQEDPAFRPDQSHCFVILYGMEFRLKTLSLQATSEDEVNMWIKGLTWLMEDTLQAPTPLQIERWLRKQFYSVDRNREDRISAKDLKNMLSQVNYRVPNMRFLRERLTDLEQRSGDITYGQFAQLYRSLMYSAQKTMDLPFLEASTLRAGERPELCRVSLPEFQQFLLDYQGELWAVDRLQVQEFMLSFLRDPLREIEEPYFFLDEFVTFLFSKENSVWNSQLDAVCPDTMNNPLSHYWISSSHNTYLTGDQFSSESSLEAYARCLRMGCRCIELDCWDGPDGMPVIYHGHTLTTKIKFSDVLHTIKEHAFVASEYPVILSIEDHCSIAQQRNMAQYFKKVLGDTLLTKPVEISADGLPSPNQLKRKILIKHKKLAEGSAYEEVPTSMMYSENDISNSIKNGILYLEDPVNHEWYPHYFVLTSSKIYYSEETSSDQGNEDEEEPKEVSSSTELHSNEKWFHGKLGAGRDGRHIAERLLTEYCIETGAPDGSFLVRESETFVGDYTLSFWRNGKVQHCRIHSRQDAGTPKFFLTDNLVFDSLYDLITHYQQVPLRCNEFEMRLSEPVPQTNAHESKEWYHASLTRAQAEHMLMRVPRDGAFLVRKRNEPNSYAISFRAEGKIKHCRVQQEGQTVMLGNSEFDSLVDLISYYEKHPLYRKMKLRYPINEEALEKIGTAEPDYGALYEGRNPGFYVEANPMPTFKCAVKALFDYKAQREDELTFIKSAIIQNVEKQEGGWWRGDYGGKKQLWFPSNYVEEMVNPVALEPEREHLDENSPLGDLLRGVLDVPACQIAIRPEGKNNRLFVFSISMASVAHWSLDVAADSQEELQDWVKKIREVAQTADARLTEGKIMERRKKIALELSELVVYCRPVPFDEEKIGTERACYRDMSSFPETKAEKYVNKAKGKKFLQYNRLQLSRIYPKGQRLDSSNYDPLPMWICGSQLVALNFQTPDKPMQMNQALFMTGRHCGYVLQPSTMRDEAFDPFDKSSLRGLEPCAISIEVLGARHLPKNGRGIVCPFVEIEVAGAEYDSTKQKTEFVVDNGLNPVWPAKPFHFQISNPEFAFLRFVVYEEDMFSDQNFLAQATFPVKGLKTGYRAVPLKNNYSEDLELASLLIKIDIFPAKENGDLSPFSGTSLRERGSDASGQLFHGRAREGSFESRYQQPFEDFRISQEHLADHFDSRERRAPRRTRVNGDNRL

[3] = target: 1-phosphatidylinositol 4,5-bisphosphate phosphodiesterase beta-3 (Homo sapiens, UniProt Q01970); assay: Fluorescence-based biochemical high throughput dose response assay to identify inhibitors of phospholipase C isozymes (PLC-B3).
[4] = Luminescence Cell-Based Dose Response to Identify Activators of 5'UTR Stem-Loop Driven Prion Protein mRNA Translation in H4-C Neuroglioblastoma Cells. [Related pubchem assays: 1829 (Project Summary), 1814 (Primary HTS)]; type: functional
[5] = Luminescence Cell-Based Dose Response HTS to Identify Activators of Luciferase Translation or Activity in H4 […] Cells. [Related pubchem assays: 1829 (Project Summary), 1814 (Primary HTS)]; type: functional
[6] = system: H4; assay: Luminescence Cell-Based Dose Response HTS to Identify Activators of 5'UTR Stem-Loop Driven Prion Protein mRNA Translation in H4 Neuroglioblastoma Cells. [Related pubchem assays: 1829 (Project Summary), 1814 (Primary HTS)]; type: functional; details: Homo sapiens
[7] = Luminescence Cell-Based Dose Response to Identify Activators of Luciferase Translation or Activity in H4-C Neuroglioblastoma Cells. [Related pubchem assays: 1829 (Project Summary), 1814 (Primary HTS)]; type: functional
[8] = Luminescence Cell-Based Dose Confirmation to Identify Activators of 5'UTR Stem-Loop Driven Alpha-Synuclein mRNA Translation in H4 Neuroglioblastoma Cells. [Related pubchem assays: 1829 (Project Summary), 1814 (Primary HTS)]; type: functional
[9] = target: T2, Polyadenylate-binding protein 1 (Homo sapiens, UniProt P11940); assay: MLLE binding blockers, Cy5 peptide tracer – biochemical, fluorescence polarization, Cy5-PAM2 peptide, secondary, miRNA deadenylation inhibitor project, dose response (AID 602260); type: functional; details: read-out: IC50_Mean
T2 sequence (P11940 whole entry, the tested form may be a part): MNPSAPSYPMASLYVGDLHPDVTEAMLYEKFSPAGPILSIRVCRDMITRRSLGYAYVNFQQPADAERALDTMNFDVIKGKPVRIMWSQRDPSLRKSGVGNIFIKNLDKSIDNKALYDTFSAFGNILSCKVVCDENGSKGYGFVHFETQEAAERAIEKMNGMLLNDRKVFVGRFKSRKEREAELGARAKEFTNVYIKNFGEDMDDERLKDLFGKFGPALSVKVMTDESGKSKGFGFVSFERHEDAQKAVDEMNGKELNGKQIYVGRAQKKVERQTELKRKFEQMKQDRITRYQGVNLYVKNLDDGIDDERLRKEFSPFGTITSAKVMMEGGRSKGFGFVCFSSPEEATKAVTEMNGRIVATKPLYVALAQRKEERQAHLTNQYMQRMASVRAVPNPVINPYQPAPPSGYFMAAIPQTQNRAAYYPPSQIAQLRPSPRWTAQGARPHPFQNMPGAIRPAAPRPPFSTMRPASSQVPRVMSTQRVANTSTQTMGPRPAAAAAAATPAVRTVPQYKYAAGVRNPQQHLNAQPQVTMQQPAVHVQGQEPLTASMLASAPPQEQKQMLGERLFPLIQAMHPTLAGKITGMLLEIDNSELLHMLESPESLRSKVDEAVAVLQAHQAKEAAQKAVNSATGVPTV

[10] = target: T2, Polyadenylate-binding protein 1; assay: MLLE domain peptide-binding blockers, IC50 – biochemical, fluorescence polarization, FITC-PAM2 peptide, dose response (AID 602259); type: functional; details: read-out: IC50_Mean
[11] = target: Oxysterols receptor LXR-beta (Homo sapiens, UniProt P55055); type: functional, cell-based;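 also: Cell-based luminescence dose-response assay of agonist activity at LXR, run as a confirmatory counterscreen to a daf-12 agonist screen; HEK293 cells with Gal4-LXR fusion and GAL4-driven luciferase reporter; agonist potency from rising luciferase signal of a Gal4-LXR reporter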
Chain of Oxysterols receptor LXR-beta (P55055 whole entry, the tested form may be a part): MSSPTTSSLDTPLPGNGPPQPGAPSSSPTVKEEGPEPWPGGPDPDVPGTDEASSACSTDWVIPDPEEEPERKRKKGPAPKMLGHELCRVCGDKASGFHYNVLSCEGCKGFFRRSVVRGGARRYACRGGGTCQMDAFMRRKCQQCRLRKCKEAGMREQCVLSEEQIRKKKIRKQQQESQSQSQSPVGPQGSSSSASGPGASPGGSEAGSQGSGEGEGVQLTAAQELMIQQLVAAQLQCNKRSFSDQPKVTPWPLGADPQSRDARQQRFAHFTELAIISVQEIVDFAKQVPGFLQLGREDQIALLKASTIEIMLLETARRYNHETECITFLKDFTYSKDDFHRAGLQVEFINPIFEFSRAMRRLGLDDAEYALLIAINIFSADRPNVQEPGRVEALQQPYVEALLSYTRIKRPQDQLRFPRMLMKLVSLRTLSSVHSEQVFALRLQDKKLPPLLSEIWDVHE

[12] = cells
[13] = cells; type: functional, cell-based
[14] = target: T3, Trace amine-associated receptor 1 (Homo sapiens, UniProt Q96RJ0); assay: Fluorescence-based cell-based high throughput dose response assay to identify agonists of the human trace amine associated receptor 1 (TAAR1).; type: functional
T3 sequence (Q96RJ0 whole entry): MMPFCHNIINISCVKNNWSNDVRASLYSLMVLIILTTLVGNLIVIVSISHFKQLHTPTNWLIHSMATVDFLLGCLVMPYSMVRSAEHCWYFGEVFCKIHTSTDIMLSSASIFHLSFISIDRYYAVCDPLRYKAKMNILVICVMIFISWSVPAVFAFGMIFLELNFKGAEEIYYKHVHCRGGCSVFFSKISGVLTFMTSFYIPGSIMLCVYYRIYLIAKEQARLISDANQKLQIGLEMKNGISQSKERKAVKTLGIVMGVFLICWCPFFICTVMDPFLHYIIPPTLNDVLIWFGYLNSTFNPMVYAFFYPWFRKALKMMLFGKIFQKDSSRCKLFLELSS

[15] = target: T3, Trace amine-associated receptor 1; assay: Counterscreen for agonists of the human trace amine associated receptor 1 (hTAAR1): Fluorescence-based cell-based high throughput dose response assay to identify hTAAR1 agonist that also desensitize TAAR1 receptor response.; type: functional
[16] = cells; type: functional, cell-based; remark: listed apart in the source
[17] = general mammalian cell viability loss – inhibitor set, cherry-pick, set 2, cytotoxicity control for miR-122 modulator project, dose response (AID 720697); type: functional, cell-based
[18] = target: Beta-galactosidase (Escherichia coli, UniProt Q8VNN2); assay: Dose response counterscreen for EBI2 assay utilizing the enzyme, b-galactosidase.; type: functional
Chain of Beta-galactosidase (Q8VNN2 whole entry): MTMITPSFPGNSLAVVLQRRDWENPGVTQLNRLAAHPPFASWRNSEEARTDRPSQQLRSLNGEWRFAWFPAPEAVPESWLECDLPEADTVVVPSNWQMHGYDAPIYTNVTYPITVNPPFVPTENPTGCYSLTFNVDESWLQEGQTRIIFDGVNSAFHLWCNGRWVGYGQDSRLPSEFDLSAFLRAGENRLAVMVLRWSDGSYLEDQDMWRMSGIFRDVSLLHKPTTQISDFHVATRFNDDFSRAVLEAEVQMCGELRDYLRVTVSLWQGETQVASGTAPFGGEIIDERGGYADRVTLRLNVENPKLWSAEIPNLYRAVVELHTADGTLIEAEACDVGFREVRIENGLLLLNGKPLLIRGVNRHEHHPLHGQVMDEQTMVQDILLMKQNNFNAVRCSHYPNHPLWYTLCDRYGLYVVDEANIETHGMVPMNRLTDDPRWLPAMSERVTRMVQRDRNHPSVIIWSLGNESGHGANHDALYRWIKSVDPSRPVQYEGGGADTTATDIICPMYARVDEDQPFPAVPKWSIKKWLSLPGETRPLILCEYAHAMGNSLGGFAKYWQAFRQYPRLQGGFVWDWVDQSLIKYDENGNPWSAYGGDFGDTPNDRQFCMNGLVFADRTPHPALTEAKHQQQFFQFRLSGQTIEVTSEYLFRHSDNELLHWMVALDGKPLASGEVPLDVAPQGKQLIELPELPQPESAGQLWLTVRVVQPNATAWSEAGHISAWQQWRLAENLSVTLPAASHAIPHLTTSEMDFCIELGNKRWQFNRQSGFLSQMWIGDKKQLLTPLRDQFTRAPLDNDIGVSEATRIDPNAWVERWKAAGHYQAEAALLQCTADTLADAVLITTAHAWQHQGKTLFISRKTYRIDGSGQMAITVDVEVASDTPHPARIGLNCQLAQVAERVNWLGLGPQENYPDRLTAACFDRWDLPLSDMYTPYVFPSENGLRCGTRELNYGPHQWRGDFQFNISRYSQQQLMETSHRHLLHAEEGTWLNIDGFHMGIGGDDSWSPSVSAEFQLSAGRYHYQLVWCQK

[19] = target: Tyrosine-protein phosphatase non-receptor type 11 (Homo sapiens, UniProt Q06124); assay: PTPN11 enzyme inhibitors – biochemical, selectivity assay for STEP inhibitor project, dose response (AID 602367); type: functional; details: read-out: IC50_Mean
Chain of Tyrosine-protein phosphatase non-receptor type 11 (Q06124 whole entry): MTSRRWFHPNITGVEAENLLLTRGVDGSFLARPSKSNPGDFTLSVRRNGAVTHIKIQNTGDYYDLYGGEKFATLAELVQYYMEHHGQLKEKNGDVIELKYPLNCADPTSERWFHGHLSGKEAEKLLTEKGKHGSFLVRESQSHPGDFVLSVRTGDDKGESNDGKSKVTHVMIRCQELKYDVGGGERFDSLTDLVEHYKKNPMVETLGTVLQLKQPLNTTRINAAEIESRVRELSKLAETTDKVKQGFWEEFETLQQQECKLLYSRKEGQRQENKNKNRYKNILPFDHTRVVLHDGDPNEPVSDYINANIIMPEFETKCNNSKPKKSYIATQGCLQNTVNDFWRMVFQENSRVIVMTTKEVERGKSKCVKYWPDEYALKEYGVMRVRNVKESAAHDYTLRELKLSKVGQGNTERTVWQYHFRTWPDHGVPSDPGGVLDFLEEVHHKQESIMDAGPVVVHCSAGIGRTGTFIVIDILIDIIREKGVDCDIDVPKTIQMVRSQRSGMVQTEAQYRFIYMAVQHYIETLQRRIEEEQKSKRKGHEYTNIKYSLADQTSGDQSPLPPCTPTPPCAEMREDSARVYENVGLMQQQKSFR

[20] = target: Tyrosine-protein phosphatase non-receptor type 5 (Homo sapiens, UniProt P54829); assay: PTPN5 enzyme inhibition – biochemical, fluorescence intensity, uHTS hits, confirmation (AID 602372); type: functional; details: read-out: IC50_Mean
Chain of Tyrosine-protein phosphatase non-receptor type 5 (P54829 whole entry): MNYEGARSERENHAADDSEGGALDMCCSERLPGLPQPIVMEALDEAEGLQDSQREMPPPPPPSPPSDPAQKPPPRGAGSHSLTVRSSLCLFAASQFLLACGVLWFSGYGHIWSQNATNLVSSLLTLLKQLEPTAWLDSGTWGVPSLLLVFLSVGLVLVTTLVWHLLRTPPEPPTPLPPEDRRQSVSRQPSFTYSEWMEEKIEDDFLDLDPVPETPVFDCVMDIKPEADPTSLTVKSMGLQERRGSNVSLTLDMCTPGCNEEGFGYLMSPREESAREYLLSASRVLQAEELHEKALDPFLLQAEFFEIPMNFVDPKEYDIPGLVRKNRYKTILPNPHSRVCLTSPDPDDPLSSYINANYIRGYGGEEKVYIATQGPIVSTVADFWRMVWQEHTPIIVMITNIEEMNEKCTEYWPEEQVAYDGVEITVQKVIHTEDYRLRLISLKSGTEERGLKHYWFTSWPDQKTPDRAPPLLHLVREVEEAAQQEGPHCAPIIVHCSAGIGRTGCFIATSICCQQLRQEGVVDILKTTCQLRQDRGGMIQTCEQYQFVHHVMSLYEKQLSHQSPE

[21] = target: Dual specificity protein phosphatase 3 (Homo sapiens, UniProt P51452); assay: VHR phosphatase inhibition, dose response, selectivity assay for STEP inhibitor project, biochemical (AID 602374); type: functional; details: read-out: IC50_Mean
Chain of Dual specificity protein phosphatase 3 (P51452 whole entry): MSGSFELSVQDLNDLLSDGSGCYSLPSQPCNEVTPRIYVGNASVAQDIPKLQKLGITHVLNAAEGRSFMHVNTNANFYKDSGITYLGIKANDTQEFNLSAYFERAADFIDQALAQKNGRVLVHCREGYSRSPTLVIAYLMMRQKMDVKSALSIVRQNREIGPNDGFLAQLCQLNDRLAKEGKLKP

[22] = target: T4, Tyrosine-protein phosphatase non-receptor type 22 (Homo sapiens, UniProt Q9Y2R2); assay: lymphoid phosphatase LYP inhibitors – biochemical, selectivity assay for STEP inhibitor project, dose response (AID 624241); type: functional
T4 sequence (Q9Y2R2 whole entry): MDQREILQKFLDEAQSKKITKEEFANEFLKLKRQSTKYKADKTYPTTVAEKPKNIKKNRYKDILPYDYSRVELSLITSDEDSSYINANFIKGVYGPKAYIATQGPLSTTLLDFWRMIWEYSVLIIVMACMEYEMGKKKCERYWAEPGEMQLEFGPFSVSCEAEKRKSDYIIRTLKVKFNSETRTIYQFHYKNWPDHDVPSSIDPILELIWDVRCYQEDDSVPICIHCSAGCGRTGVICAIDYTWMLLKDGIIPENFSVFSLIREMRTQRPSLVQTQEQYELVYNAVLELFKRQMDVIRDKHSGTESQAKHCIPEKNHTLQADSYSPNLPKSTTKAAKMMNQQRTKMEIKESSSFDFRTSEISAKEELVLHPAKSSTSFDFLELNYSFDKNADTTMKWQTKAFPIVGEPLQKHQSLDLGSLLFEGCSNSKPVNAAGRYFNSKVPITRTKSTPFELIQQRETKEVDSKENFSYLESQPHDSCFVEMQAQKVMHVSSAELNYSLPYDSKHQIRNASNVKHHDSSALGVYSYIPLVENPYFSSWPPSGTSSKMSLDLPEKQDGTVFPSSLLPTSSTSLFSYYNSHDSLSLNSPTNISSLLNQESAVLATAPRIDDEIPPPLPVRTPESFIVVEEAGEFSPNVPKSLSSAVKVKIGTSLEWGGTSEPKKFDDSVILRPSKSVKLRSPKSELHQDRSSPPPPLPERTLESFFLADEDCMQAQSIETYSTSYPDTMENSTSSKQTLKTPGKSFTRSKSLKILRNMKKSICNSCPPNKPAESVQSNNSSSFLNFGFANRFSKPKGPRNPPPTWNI

[23] = A549 cell cytotoxicity, dose response, cytotoxicity control, plate reader, cherry-pick, antagonist series (AID 743412); type: functional, cell-based
[24] = toxicity toward HepG2 liver cells – cell-based, plate reader, cherry-pick, antagonist series, cytotoxicity control, dose response (AID 743416); type: functional
[25] = viability of uninfected HEp-2 cells – cell-based, HTS, cytotoxicity control for RSV inhibitor project, dose response (AID 2410); type: functional; details: human respiratory syncytial virus
[26] = blockers of bursicon-stimulated LGR2 cAMP reporter – cell-based, HEK293, CRE-luciferase reporter, cherry pick, set 2, dose response (AID 743343); type: functional;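 also: transfected cells were stimulated with diluted bursicon conditioned medium after compound addition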
[27] = blockade of melanocortin 4 receptor signaling – cell-based, plate reader, cherry pick, counter-screen for LGR2 antagonist project, dose response (AID 743444); type: functional;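 also: transfected HEK 293 cells stimulated with alpha-MSH peptide; potency of inhibitors of the alpha-MSH evoked signal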
[28] = viability loss in HEK293 cells – cell-based, plate reader, cherry-picked samples, cytotoxicity control, dose response (AID 743446); type: functional
[29] = cells; remark: listed apart in the source
[30] = cells; type: functional, cell-based; remark: listed apart in the source
[31] = target: T5, Nuclear receptor subfamily 0 group B member 1 (Homo sapiens, UniProt P51843); type: functional, cell-based;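 also: HEK293T cells transfected with SF-1 and DAX-1 plus StAR promoter luciferase reporter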
T5 sequence (P51843 whole entry): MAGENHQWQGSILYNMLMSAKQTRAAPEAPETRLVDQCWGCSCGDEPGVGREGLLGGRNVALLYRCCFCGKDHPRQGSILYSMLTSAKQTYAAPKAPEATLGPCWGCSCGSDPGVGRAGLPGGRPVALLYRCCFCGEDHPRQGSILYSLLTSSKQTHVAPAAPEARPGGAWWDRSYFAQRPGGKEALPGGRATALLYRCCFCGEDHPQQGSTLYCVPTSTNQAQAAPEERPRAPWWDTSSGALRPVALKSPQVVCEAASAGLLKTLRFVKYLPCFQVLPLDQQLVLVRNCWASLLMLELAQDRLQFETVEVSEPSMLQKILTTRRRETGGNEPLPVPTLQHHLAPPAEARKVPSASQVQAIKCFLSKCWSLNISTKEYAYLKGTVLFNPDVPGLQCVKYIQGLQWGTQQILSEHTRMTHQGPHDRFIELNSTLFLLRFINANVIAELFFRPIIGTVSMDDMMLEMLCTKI

[32] = target: Ras and Rab interactor 1/Tyrosine-protein kinase ABL1 (Homo sapiens, UniProt P00519+Q13671); type: functional;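 also: biochemical TR-FRET dose-response test measuring inhibition of binding between Rin1 and Abl proteins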
[33] = system: HeLa; assay: viability loss in HeLa cells – cell-based, ATP luminescence, cherry-pick samples, cytotoxicity control, dose response (AID 687004); type: functional; details: Homo sapiens
[34] = anti-trypanosomal activity in BESM host cells – imaging, CA-I/72 strain, bovine embryo skeletal muscle, dry powder, dose response (AID 651885); type: functional, cell-based

SMILES: CC/C(NCc1ccco1)=C1/C(=O)NC(=O)N(C2CCCCC2)C1=O
- EC50 [1]: > 260 µM (inactive)
- IC50 [2]: > 122 µM (inactive)
- IC50 [3]: > 122 µM (inactive)

SMILES: Cc1cccnc1NC(=S)NC(=O)c1cccs1
- EC50 [4]: 0.464 µM (active)
- EC50 [5]: < 0.1 µM (active)
- EC50 [6]: 14.9 µM (active)
- EC50 [7]: 0.19 µM (active)
- EC50 [8]: 0.161 µM (active)
- IC50 [9]: > 66 µM (inactive)
- IC50 [10]: > 66 µM (inactive)
- EC50 [11]: > 67.5 µM (inactive)
- EC50 [12]: > 67.5 µM (inactive)

SMILES: CCc1ccccc1S(=O)(=O)Cc1ccc(C(=O)NCCc2ccccc2)o1
- IC50 [13]: 20 µM (inactive)
- EC50 [14]: 4.46 µM (active)
- IC50 [15]: 6.38 µM (active)
- EC50 [16]: > 29.9 µM (inactive)

SMILES: COc1ccc(-c2c(C(C)=O)c(C)nc3sc4c(c23)NC(c2ccccc2)NC4=O)cc1 (stereo unspecified)
- AC50 [17]: 2.66 µM (active)

SMILES: CCCCCn1c(=O)[nH]c2cc(C(=O)NCCN3C(C)CCCC3C)ccc2c1=O (stereo unspecified)
- AC50 [17]: 2.22 µM (active)

SMILES: O=C(COc1ccc(Cl)cc1)N1CCN(Cc2ccccc2)CC1
- IC50 [18]: > 80 µM (inactive)

SMILES: COc1cc(/C=C2/SC(=S)N(CC(=O)O)C2=O)ccc1OCC(=O)Nc1ccc(C)c(C)c1
- IC50 [19]: 3.64 µM (active)
- IC50 [20]: 6.72 µM (active)
- IC50 [21]: 4.32 µM (active)
- IC50 [22]: 16.5 µM (active)

SMILES: COc1ccc(CCNC(=O)C2CCN(S(=O)(=O)c3ccc(Cl)cc3)CC2)cc1OC
- AC50 [23]: 35.3 µM (active)
- AC50 [24]: 35.2 µM (active)

SMILES: COc1ccccc1N(Cc1ccccc1)S(=O)(=O)c1cccc(C(=O)Nc2cc(C)ccn2)c1
- CC50 [25]: 21.8 µM (active)
- AC50 [23]: 32.2 µM (active)
- AC50 [26]: 4.92 µM (active)
- AC50 [27]: 3.95 µM (active)
- AC50 [28]: 4.09 µM (active)
- IC50 [29]: 38.5 µM (active)

SMILES: O=C(NN=Cc1ccccc1O)c1cccc([N+](=O)[O-])c1
- IC50 [19]: 2.39 µM (active)
- IC50 [20]: 8.95 µM (active)
- IC50 [21]: 3.13 µM (active)
- IC50 [22]: > 100 µM (inactive)

SMILES: COc1ccc(-c2cc(NC=O)c3ncc(-c4ccc(OC)c(OC)c4)n3c2)c(OC)c1
- IC50 [30]: > 67.6 µM (inactive)
- IC50 [31]: > 67.6 µM (inactive)

SMILES: OC[C@@H]1CN(Cc2ccc(Cl)cc2)C[C@H](n2cnc3c(NC4CC4)ncnc32)O1
- IC50 [32]: 37.2 µM (inactive)
- IC50 [18]: > 80 µM (inactive)

SMILES: Cc1ccccc1C(=O)N[C@H](C(=O)N1CCC[C@H]1C(=O)NCCc1ccccc1Cl)C(C)C
- IC50 [13]: > 3.32 µM (active)
- EC50 [14]: 1.64 µM (active)
- IC50 [15]: 3.15 µM (active)
- EC50 [16]: > 29.9 µM (inactive)

SMILES: O=C(C1CCOCC1)N1C[C@H]2[C@@H](c3ccccc31)[C@@H](CO)N2Cc1ccccc1Cl
- AC50 [33]: > 52 µM (inactive)

SMILES: Cc1ccc(N2CCN(C(CCc3ccccc3)C(=O)Nc3c(C)cccc3C)CC2)cc1 (stereo unspecified)
- AC50 [33]: > 52 µM (inactive)

SMILES: C[C@@H]1CN([C@@H](C)CO)C(=O)c2cc(Br)cnc2O[C@H]1CN(C)Cc1ccc2c(c1)OCO2
- IC50 [34]: > 20 µM (inactive)

From ChEMBL document CHEMBL1201862, “PubChem BioAssay data set” (2004)
